The text below walks through data of patent publication US9687467B2, “Diagnosis and treatment of taxane-resistant cancers” (Children's Medical Center Corporation, priority 2011, dated 2017).

The test system of data set [1] is MES-SA cells. The experiment in a line: MTT cell viability assay, paclitaxel response. The data set is classed as cell-based, human. Conditions: after transfection with miR-135a mimic, 100 nM paclitaxel. The method, then: (§1) The paclitaxel-resistant cell lines MES-SA^DX5 and A549^TR were transfected with a scrambled non-targeting miRNA (control) and an miR-135a mimic (mimic), respectively. Cells were subsequently treated with 100 nM paclitaxel and cell viability was assessed using the MTT assay (FIGS. 2A, 2B). The percentage of apoptotic cells was assessed by Annexin V-staining and FACS analysis (FIGS. 2C, 2D). Values are presented as percent cell survival in paclitaxel-treated cells relative to untreated cells. *P<0.05, **P<0.001 as determined by Wilcoxon's rank sum test.
FIGS. 4A-4E are a series of micrographs and line graphs showing that miR-135a-mediated APC suppression contributes to paclitaxel resistance. MES-SA and A549 cells were mock-transfected (mock), transfected with a scrambled siRNA (siControl) or with siRNA directed against APC (siAPC). […] Transfected A549 (FIG. 4B) and MES-SA (FIG. 4C) cells were treated with paclitaxel and viability was assessed using the MTT assay. […] (FIG. 4E) Both A549-shCON and -shAPC cells were treated with paclitaxel and cell viability was measured using the MTT assay. […]
(§2) Cell growth inhibition was determined by a 3-(4,5-dimethylthiazol-2-yl)-2,5-diphenyltetrazolium (MTT) bromide assay. […] Absorbance was determined using a 96-well SpectraMax plate reader (Molecular Devices, Sunnyvale, Calif.) at 560 nm and 650 nm (background). […]
On the technique in general: Tetrazolium assays rely on reduction of a dye to a coloured formazan, in cell work by metabolically active cells.

For data set [2], the system named is A549 cells. The data set is described as follows: Annexin V staining and FACS analysis of paclitaxel-induced apoptosis. The data set is classed as cell-based, human. To be noted: transfection with miR-135a mimic, 100 nM paclitaxel; P<0.001. The procedure:
as §1
Annexin V/7-amino-actinomycin D labeling was performed according to the manufacturer's instructions (BD Pharmingen™, San Diego, Calif., USA, 559 763) and samples were analyzed by flow cytometry. Briefly, cells were treated for 48-72 h with either vehicle or 100 nM paclitaxel. Cells were trypsinized and washed with phosphate-buffered saline before resuspending in assay binding buffer. Annexin V and 7-amino-actinomycin labeling was performed at room temperature for 15 min before analysis by flow cytometry (BD FACScan™, San Jose, Calif., USA).

Data set [3] deals with APC 3′-UTR. The experiment in a line: Luciferase reporter fused to APC 3'-UTR. The data set is classed as cell-based, human. To be noted: 30 nM miR-135a mimic. From the text: FIGS. 3A-3E are a series of bar graphs showing that miR-135a modulates APC expression in paclitaxel-resistant cancer cells. MES-SA (FIG. 3A) or A549 (FIG. 3B) cells were transfected with a luciferase reporter construct fused to APC 3′-UTR or a control luciferase reporter vector with a random 3′-UTR (random UTR). Subsequently, cells were cotransfected with either an miR-135a mimic or a non-targeting miRNA control (control miRNA). Values are shown as the percent of luciferase expression compared with the control. *P<0.01 as determined by Wilcoxon's rank sum test. FIG. 3C: Endogenous APC mRNA expression was quantified by RT-PCR analysis in A549, A549^TR, MES-SA and MES-SA^DX5 cells. Bars represent mean and s.e.m. from duplicate experiments. NS: not significant, **P<0.001 as determined by Wilcoxon's rank sum test. In addition, APC protein expression was examined by western blotting (bottom panel). […]
Double-stranded RNA oligos representing a mature sequence that mimics endogenous miR-135a, anti-miR-135a designed to inhibit endogenous miR-135a, and anti-miR negative control were all obtained from Ambion™ and were transfected into cell lines at ˜50% confluence at 30 nM concentration with siLentFect (Bio-Rad™). […] The next day, luciferase activity was measured using the Dual-Glo® Luciferase assay system (Promega™, Madison, Wis.). […]
In general terms: A reporter such as luciferase makes a cellular process visible.

Data set [4] relates to T824.1 cell line. The experiment in a line: MTT cell viability assay on in vivo established paclitaxel-sensitive cell line. The data set is classed as cell-based. To be noted: paclitaxel-sensitive cells transfected with miR-135a mimic. The method, then:
(FIG. 7A). The parental A549 cells, a cell line that became refractory during in vivo treatment with paclitaxel (T20.2 round 1) and the same cell line established after yet another round of in vivo paclitaxel treatment (T20.2 reinjection) were treated with paclitaxel and cell viability was assessed using the MTT assay. Represented are average LC50±s.e.m. determined by MTT assay for parental A549 cells (white boxes), **P<0.001, *P<0.05 as determined by Wilcoxon's rank sum test for T20.2 round 1 cells (hatched boxes) and for T20.2 re-injection cells (filled boxes). (FIG. 7B) The expression of miR-135a was examined in these cells by qRT-PCR. *P<0.05 as determined by Wilcoxon's rank sum test. (FIG. 7C) The expression of miR-135a was examined in the cell lines established in vivo. The correlation between paclitaxel response and miR-135a expression was calculated using the Spearman's rank test. […] Subsequently, cells were treated with the indicated concentrations of paclitaxel and cell viability was assessed using the MTT assay. […]
as §2

Turning to “miR-135a mimic: double-stranded RNA oligos representing a mature sequence that mimics endogenous miR-135a, from Ambion (sense GTATTGGGCGCCTGGTCACC; antisense CGGGAAGATGGTGATGG; listed as DNA, chemistry not given here)”, in data set [1], the cell survival came out at 43.6%. Further, the “paclitaxel-induced apoptosis (annexin-positive cells)” value in data set [2] was “decreased paclitaxel-induced apoptosis”. In addition, the “targeting of APC 3' untranslated region (luciferase expression)” value was “targeted the 3′ untranslated region of APC” in data set [3] (A549 cells) and “targeted the 3′ untranslated region of APC” in data set [3] (MES-SA cells, P=0.029). For the same substance, the paclitaxel-induced cytotoxicity entry in data set [4] was “suppressed paclitaxel-induced cytotoxicity”.
